Measured values taken from patent US20260234157A1, “COMPOUND AND METHOD FOR TARGETED DEGRADATION OF ANDROGEN RECEPTOR” (Gan & Lee Pharmaceuticals Co., Ltd., priority 2023, published 2026).
Where a chain is given by its changes, count along the chain named. Where two headings read alike, the source gives them in different places. Blank lines part the entries; values can stand above or below the compound they belong to.

What was measured:
Assay type in all cases: cell-based
AR protein [1] = molecular target: T1, AR protein (Homo sapiens, UniProt P10275, T878A); test: Degradation of AR protein in LNCaP cells (Western blot); conditions: for inhibition at 0.01 µM: read-out: Degradation rates of the AR protein in LNCaP cells, 10 nM (%); for inhibition at 0.1 µM: read-out: Degradation rates of the AR protein in LNCaP cells, 100 nM (%)
T1 construct: degradation activity of the compounds disclosed in the present disclosure on AR protein in LNCaP cells; host or cells: LNCaP FGC
T1 sequence (P10275 1-920 T878A): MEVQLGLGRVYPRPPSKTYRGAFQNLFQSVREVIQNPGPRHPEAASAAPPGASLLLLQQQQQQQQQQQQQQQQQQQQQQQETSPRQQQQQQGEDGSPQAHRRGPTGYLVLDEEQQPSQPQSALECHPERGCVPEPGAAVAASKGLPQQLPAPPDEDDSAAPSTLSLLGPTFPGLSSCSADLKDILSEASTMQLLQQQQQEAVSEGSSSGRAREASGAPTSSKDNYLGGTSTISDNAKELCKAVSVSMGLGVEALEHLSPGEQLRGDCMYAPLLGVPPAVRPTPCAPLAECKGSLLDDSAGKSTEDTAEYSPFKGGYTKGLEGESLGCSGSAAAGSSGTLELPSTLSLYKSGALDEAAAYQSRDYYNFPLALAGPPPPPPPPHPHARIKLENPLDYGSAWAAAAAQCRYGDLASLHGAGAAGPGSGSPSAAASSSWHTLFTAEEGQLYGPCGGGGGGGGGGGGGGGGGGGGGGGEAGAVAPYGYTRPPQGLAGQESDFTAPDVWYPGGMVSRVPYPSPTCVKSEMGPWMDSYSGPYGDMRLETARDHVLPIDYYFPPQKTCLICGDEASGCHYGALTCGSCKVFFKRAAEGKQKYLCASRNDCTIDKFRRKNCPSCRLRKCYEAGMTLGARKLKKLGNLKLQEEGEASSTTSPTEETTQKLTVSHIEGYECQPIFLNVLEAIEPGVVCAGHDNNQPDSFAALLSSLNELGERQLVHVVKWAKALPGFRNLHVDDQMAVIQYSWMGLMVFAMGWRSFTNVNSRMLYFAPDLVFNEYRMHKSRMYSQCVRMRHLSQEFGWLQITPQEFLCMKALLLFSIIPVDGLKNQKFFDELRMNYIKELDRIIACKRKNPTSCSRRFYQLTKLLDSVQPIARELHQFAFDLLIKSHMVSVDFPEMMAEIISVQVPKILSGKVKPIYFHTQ
Procedure: The degradation activity of the compounds disclosed in the present disclosure on AR protein in LNCaP cells (cell source: ATCC)
(§1) Corresponding solvent controls were also set and cultured for 8 hours. After 8 hours of cultivation, the culture medium was removed and the cells were washed with PBS. RIPA lysis buffer containing 1% Protease Inhibitor Cocktail was added, and the total protein extract was obtained by lysis and centrifugation. The protein concentration in the extract was detected by BCA method. Protein electrophoresis was performed using SDS-PAGE, followed by transfer of the protein onto a PVDF (Millipore Sigma catalog No. PSRP010R5) membrane at 100V constant voltage for 60 minutes. The PVDF membrane was then placed in a 1×TBST solution with 5% milk and blocked at room temperature for 1 hour. […] The primary antibody solution was discarded and the PVDF membrane was washed three times with 1×TBST for 5 minutes/time. […] The secondary antibody solution was discarded and the PVDF membrane was washed three times with 1×TBST for 5 minutes/time. Western blot imaging was performed by using a dual color infrared laser imaging system (Licor catalog No. Odyssey CLX). Bands were analyzed in grayscale using Image Studio software. For each sample, GAPDH protein bands were detected as internal reference. The degradation rates of the AR protein for the compounds and the positive control sample were calculated based on grayscale of the protein bands.

LNCaP FGC cells = test: Inhibition of proliferation of LNCaP cells (WST-8)
Procedure: The cells were cultured in a cell culture incubator with 5% CO2 at 37° C. overnight. […] On the sixth day, 96 well plates were taken out, and 20 μL of WST-8 (Beytime, C0040) reagent was added to each well.

AR protein [2] = molecular target: T2, AR protein (Homo sapiens, UniProt P10275); test: Degradation of AR protein in VCaP cells (Western blot); conditions: 8 hours; for inhibition at 0.01 µM: compound at 10 nM, read-out: Degradation rate of the AR protein in VCaP cells, 10 nM (%); for inhibition at 0.1 µM: compound at 100 nM, read-out: Degradation rate of the AR protein in VCaP cells, 100 nM (%)
T2 construct: degradation activity of the compounds disclosed in the present disclosure on AR protein in VCaP cells; host or cells: VCaP
T2 sequence (P10275 1-920): T1 sequence (P10275 1-920 T878A) with A878T
Procedure: The degradation activity of the compounds disclosed in the present disclosure on AR protein in VCaP cells (cell source: ATCC)
as §1

[3] = Homo sapiens, LNCaP, 96 h, read-out: IC50 for inhibiting the proliferation of LNCaP cells, LNCaP FGC cells, 96 hours, WST-8 absorbance at 450 nm
[4] = Homo sapiens, LNCaP, 96 h, LNCaP FGC cells, 96 hours, WST-8 absorbance at 450 nm, read-out: IC50 for inhibiting the proliferation of LNCaP cells
[5] = LNCaP FGC cells, 96 hours, WST-8 absorbance at 450 nm, read-out: IC50 for inhibiting the proliferation of LNCaP cells
[6] = LNCaP cells, compound 10 nM, 8 hours, Western blot grayscale, GAPDH internal reference
[7] = LNCaP cells, compound 100 nM, 8 hours, Western blot grayscale, GAPDH internal reference

Compound: N#Cc1ccc(O[C@H]2CC[C@H](NC(=O)c3ccc(N4CCC(N5CCC6(CC5)COc5c(ccc7c5C(=O)N(C5CCC(=O)NC5=O)C7)C6)CC4)nn3)CC2)cc1Cl (stereo partly shown) [Compound 189]
- inhibition at 0.01 µM (AR protein [1]; LNCaP, 8 h): 42%
- inhibition at 0.1 µM (AR protein [1]; LNCaP, 8 h): 57%
- IC50 (LNCaP FGC cells; [3]): 26.9 µM

Compound: CC1(C)C(=O)N(c2ccc(C#N)c(C(F)(F)F)c2)C(=S)N1c1ccc(C(=O)N2CCC(CN3CC4(CCc5cc6c(cc5O4)C(=O)N(C4CCC(=O)NC4=O)C6=O)C3)CC2)c(F)c1 (stereo not shown) [Compound 119]
- IC50 (LNCaP FGC cells; [3]): 4.11 µM

- IC50 (LNCaP FGC cells; [4]): 72.7 µM
Compound: CC1(CN2CCC3(CCc4ccc5c(c4O3)CN(C3CCC(=O)NC3=O)C5=O)CC2)CCN(c2ccc(C(=O)N[C@H]3CC[C@H](Oc4ccc(C#N)c(Cl)c4)CC3)nn2)CC1 (stereo partly shown) [Compound 151]

Compound: CC1(CN2CCC3(CCc4cc5c(cc4O3)C(=O)N(C3CCC(=O)NC3=O)C5=O)CC2)CCN(C(=O)c2ccc(N3C(=S)N(c4ccc(C#N)c(C(F)(F)F)c4)C(=O)C3(C)C)cc2F)CC1 (stereo not shown) [Compound 108]
- IC50 (LNCaP FGC cells; [3]): 10.4 µM

- IC50 (LNCaP FGC cells; [5]): 0.73 µM
Compound: CC1(CN2CC3(CCc4cc5c(cc4O3)CN(C3CCC(=O)NC3=O)C5=O)C2)CCN(c2ccc(C(=O)N[C@H]3CC[C@H](Oc4ccc(C#N)c(Cl)c4)CC3)nn2)CC1 (stereo partly shown) [Compound 12]

Compound: CC1(C)C(=O)N(c2ccc(C#N)c(C(F)(F)F)c2)C(=S)N1c1ccc(C(=O)N2CCC3(CC2)CC(N2CCC4(CC2)COc2cc5c(cc24)C(=O)N(C2CCC(=O)NC2=O)C5=O)C3)c(F)c1 (stereo not shown) [Compound 122]
- IC50 (LNCaP FGC cells; [3]): 13.7 µM

Compound: CC1(C)C(=O)N(c2ccc(C#N)c(C(F)(F)F)c2)C(=S)N1c1ccc(C(=O)N2CC[C@@H](CN3CCC4(CCc5cc6c(cc5O4)C(=O)N(C4CCC(=O)NC4=O)C6=O)CC3)C2)c(F)c1 (stereo partly shown) [Compound 127]
- IC50 (LNCaP FGC cells; [4]): 6.28 µM

Compound: CC1(C)C(=O)N(c2ccc(C#N)c(C(F)(F)F)c2)C(=S)N1c1ccc(C(=O)N2CC3(CCC(N4CCC5(CCc6cc7c(cc6O5)C(=O)N(C5CCC(=O)NC5=O)C7=O)CC4)CC3)C2)c(F)c1 (stereo not shown) [Compound 117]
- IC50 (LNCaP FGC cells; [3]): 2.57 µM

Compound: CC1(C)C(=O)N(c2ccc(C#N)c(C(F)(F)F)c2)C(=S)N1c1ccc(C(=O)N2CC[C@@H](CN3CCC4(CC3)COc3cc5c(cc3C4)C(=O)N(C3CCC(=O)NC3=O)C5=O)C2)c(F)c1 (stereo partly shown) [Compound 126]
- IC50 (LNCaP FGC cells; read-out: IC50 for inhibiting the proliferation of LNCaP cells, LNCaP FGC cells, 96 hours, WST-8 absorbance at 450 nm): 4.06 µM

- IC50 (LNCaP FGC cells; [5]): 4.35 µM
Compound: N#Cc1ccc(O[C@H]2CC[C@H](NC(=O)c3ccc(N4CCC(F)(CN5CCC6(CCc7ccc8c(c7O6)CN(C6CCC(=O)NC6=O)C8=O)CC5)CC4)nn3)CC2)cc1Cl (stereo partly shown) [Compound 132]

Compound: CC1(C)C(=O)N(c2ccc(C#N)c(C(F)(F)F)c2)C(=S)N1c1ccc(C(=O)N2CCC3(CCC(N4CCC5(CCc6cc7c(cc6O5)C(=O)N(C5CCC(=O)NC5=O)C7=O)CC4)CC3)C2)c(F)c1 (stereo not shown) [Compound 129]
- IC50 (LNCaP FGC cells; [4]): 3.63 µM

Compound: CC1(C)C(=O)N(c2ccc(C#N)c(C(F)(F)F)c2)C(=S)N1c1ccc(C(=O)N2CC(CN3CCC4(CC3)COc3cc5c(cc3C4)C(=O)N(C3CCC(=O)NC3=O)C5=O)C2)c(F)c1 (stereo not shown) [Compound 128]
- IC50 (LNCaP FGC cells; [4]): 4.16 µM

- IC50 (LNCaP FGC cells; [5]): 23.7 µM
Compound: COC1(CN2CCC3(CCc4ccc5c(c4O3)CN(C3CCC(=O)NC3=O)C5=O)CC2)CCN(c2ccc(C(=O)N[C@H]3CC[C@H](Oc4ccc(C#N)c(Cl)c4)CC3)nn2)CC1 (stereo partly shown) [Compound 133]

Compound: N#Cc1ccc(O[C@H]2CC[C@H](NC(=O)c3ccc(N4CCC(N5CC(N6CCC7(CC6)COc6c7ccc7c6CN(C6CCC(=O)NC6=O)C7=O)C5)CC4)nn3)CC2)cc1Cl (stereo partly shown) [Compound 144]
- inhibition at 0.01 µM (AR protein [1]; [6]): 68%
- inhibition at 0.1 µM (AR protein [1]; [7]): 39%
- inhibition at 0.01 µM (AR protein [2]): 82%
- inhibition at 0.1 µM (AR protein [2]): 86%

- inhibition at 0.01 µM (AR protein [1]; [6]): 44%
- inhibition at 0.1 µM (AR protein [1]; [7]): 82%
- inhibition at 0.01 µM (AR protein [2]): 65%
- inhibition at 0.1 µM (AR protein [2]): 79%
Compound: N#Cc1ccc(O[C@H]2CC[C@H](NC(=O)c3ccc(N4CCC(CN5CC6(CCc7cc8c(cc7O6)C(=O)N(C6CCC(=O)NC6=O)C8=O)C5)CC4)nn3)CC2)cc1Cl (stereo partly shown) [Compound 1]

Compound: CCOC1(CN2CCC3(CC2)COc2c3ccc3c2CN(C2CCC(=O)NC2=O)C3=O)CCN(c2ccc(C(=O)N[C@H]3CC[C@H](Oc4ccc(C#N)c(Cl)c4)CC3)nn2)CC1 (stereo partly shown) [Compound 155]
- inhibition at 0.01 µM (AR protein [1]; [6]): 29%
- inhibition at 0.1 µM (AR protein [1]; [7]): 1%
- inhibition at 0.01 µM (AR protein [2]): 58%
- inhibition at 0.1 µM (AR protein [2]): 80%

- IC50 (LNCaP FGC cells; [4]): 0.39 µM
Compound: CC1(CN2CCC3(CC2)COc2c(ccc4c2C(=O)N(C2CCC(=O)NC2=O)C4)C3)CCN(c2ccc(C(=O)NC3CCC(Oc4ccc(C#N)c(Cl)c4)CC3)nn2)CC1 (stereo not shown) [Compound 187]

Compound: CC1(C)C(=O)N(c2ccc(C#N)c(C(F)(F)F)c2)C(=S)N1c1ccc(C(=O)N2CCC(CN3CCC4(CC3)COc3cc5c(cc3O4)CN(C3CCC(=O)NC3=O)C5=O)CC2)c(F)c1 (stereo not shown) [Compound 111]
- IC50 (LNCaP FGC cells; [3]): 5.72 µM

Compound: CC1(C)C(=O)N(c2ccc(C#N)c(C(F)(F)F)c2)C(=S)N1c1ccc(C(=O)N2CC3(CC(N4CCC5(CC4)COc4cc6c(cc4C5)C(=O)N(C4CCC(=O)NC4=O)C6=O)C3)C2)c(F)c1 (stereo not shown) [Compound 115]
- IC50 (LNCaP FGC cells; [3]): 10.8 µM

Compound: N#Cc1ccc(O[C@H]2CC[C@H](NC(=O)c3ccc(N4CC(N5CCC6(CC5)COc5c6ccc6c5CN(C5CCC(=O)NC5=O)C6=O)C4)nn3)CC2)cc1Cl (stereo partly shown) [Compound 183]
- inhibition at 0.01 µM (AR protein [1]; LNCaP, 8 h): 40%
- inhibition at 0.1 µM (AR protein [1]; LNCaP, 8 h): 51%
- inhibition at 0.01 µM (AR protein [2]): 75%
- inhibition at 0.1 µM (AR protein [2]): 84%
